In paper PMC7179302, “Lead Optimization of Dehydroemetine for Repositioned Use in Malaria” (Antimicrobial Agents and Chemotherapy, 2020):
Structures can show the parent of a compound that is named as a salt.

Assays:
[1] = test system: mitochondrial membrane potential of P. falciparum strain K1 trophozoites; assay: Rhodamine 123 staining for mitochondrial membrane potential, flow cytometry; assay type: cell-based, Plasmodium falciparum; conditions: deviation from infected blood without drugs
Experimental: Changes in mitochondrial membrane potential were measured using rhodamine 123 (excitation wavelength, 511 nm; emission wavelength, 534 nm), a membrane-permeating cationic fluorescent dye ([49]), which accumulates by electrostatic attraction in the mitochondria because of its negative transmembrane potential. A change in the dye’s concentration in the mitochondria is caused by a depolarization event and can be visualized as a shift in the fluorescence intensity of rhodamine 123 ([50]). Draq5 (excitation wavelength, 647 nm; emission wavelength, >665 nm) is a far-red fluorescent DNA dye which is cell permeating and was used to distinguish the parasites in flow cytometry in the allophycocyanin (APC)-Cy7-A channel. SYBR green was not preferred for this experiment as it emits in the same channel as rhodamine 123 and would result in the overlap of emission signals. Fluorescence microscopy was used to visualize the localization of rhodamine 123 within the cytoplasm of the parasites (Fig. 9).
A decrease in fluorescence intensity measured in the fluorescein isothiocyanate (FITC)-A channel indicates a loss of mitochondrial membrane potential. Atovaquone, a known mitochondrial inhibitor, was used as a control.
Compounds were then washed away by centrifuging the cultures, and a pellet was prepared for each drug concentration. Pellets were then incubated with 1 ml of 200 nM rhodamine 123 for 1 h, followed by a further incubation with 100 μl of 5 μM Draq5 for 20 min. After a wash with PBS, the experiment was read with a flow cytometer on the FITC channel. Loss of mitochondrial membrane potential was indicated by a decrease in fluorescence intensity.

[2] = test system: K1 strain of P. falciparum; assay: IC50 determination against K1 strain of P. falciparum, SYBR green-based assay, 72 h; assay type: cell-based; conditions: Plasmodium falciparum, K1, 72 h, read-out: IC50 against K1 strain of P. falciparum
Experimental: Based on the anecdotal evidence, two synthetic analogues of emetine dihydrochloride, (−)-R,S-dehydroemetine and (−)-S,S-dehydroisoemetine, were synthesized. Experiments to test drug efficacy were set up, and (−)-R,S-dehydroemetine was tested in 2-fold serial dilutions from 12.5 nM to 200 nM. A dose-response experiment was set up on synchronized ring stage cultures of the K1 strain of P. falciparum to be read at 72 h. […] (−)-S,S-dehydroisoemetine was tested in 2-fold serial dilutions from 0.625 μM to 10 μM. […]
Ring stage parasites were diluted to 0.5 to 1% parasitemia, 2.5% hematocrit (in a 96-well-plate format, 200-μl final well volume) and treated for 72 h. Dose-response parasitemia was determined using the SYBR green-based flow cytometer or plate reader method previously optimized in the laboratory ([14]).
Following drug efficacy experiments, 150-μl amounts from the control and drug-treated wells on a 96-well plate were transferred to microcentrifuge tubes, and samples were washed once with phosphate-buffered saline (PBS). […] Parasitemia was determined by measuring SYBR green fluorescence using the FITC channel of the BD FACSVerse flow cytometer system (blue laser; excitation laser line, 488 nm, with excitation maximum of 494 nm and emission maximum of […]) and cell size (forward scatter [FSC-A]). Fifty thousand events were recorded, in three replicates for each. […]

[3] = test system: P. falciparum strain Dd2; assay: microbe, parasite or virus in culture; assay type: cell-based; conditions: Plasmodium falciparum, DD2, read-out: IC50 (μM) Dd2
Experimental: (§1) The cross-resistance assay used relies on the parasites’ incorporation of labeled 3H-hypoxanthine, which is proportional to P. falciparum growth. In vitro cross-resistance of the compounds is measured as the ratio between the IC50 for the tested P. falciparum strain and the IC50 for strain 3D7A. Every replicate from a multidrug-resistant (MDR) strain involved a simultaneous determination using a 3D7A replicate to avoid any artifact linked to experimental conditions.
(§2) The three strains used for the cross-resistance assay were 3D7A, Dd2, and W2, based on their resistance profiles; the assay was carried out by GSK, Tres Cantos. Strain 3D7A is chloroquine sensitive, strain Dd2 is resistant to chloroquine, mefloquine, and pyrimethamine ([57]), and strain W2 is resistant to chloroquine, quinine, pyrimethamine, cycloguanil, and sulfadoxine (from the Malaria Research and Reference Reagent Resource Center [MR4]) ([58]). A culture of red blood cells (RBCs) parasitized by the corresponding strain (0.5% parasitemia, 2% hematocrit) in RPMI 1640, […], and 5 μM hypoxanthine was exposed to 9 dilutions (3-fold serial dilutions) of the compound starting at 5 μM. One hundred microliters of culture volume was plated in 96-well flat-bottom microtiter plates with 0.5 μl drug (200× stock in DMSO). Plates were incubated for 24 h at 37°C, 5% CO2, 5% O2, 90% N2. Next, 3H-hypoxanthine was added and plates were incubated for another 24-h period. After that, parasites were harvested on a glass fiber filter using a TomTec cell harvester 96. Filters were dried, and melt-on scintillator sheets were used to determine the incorporation of 3H-hypoxanthine. Radioactivity was measured using a MicroBeta counter. […] IC50 values were determined using the Grafit 7 program ([41]).

[4] = test system: P. falciparum strain W2; assay: microbe, parasite or virus in culture; assay type: cell-based; conditions: Plasmodium falciparum, W2, read-out: IC50 (μM) W2
Experimental: as §1, §2

| SMILES | Change in fluorescence intensity (FITC-A mean) of rhodamine 123 ([1]; at 10× IC50, 2 h) | Change in fluorescence intensity (FITC-A mean) of rhodamine 123 ([1]; at IC50, 2 h) | IC50 [2] | IC50 [3] | IC50 [4] |
| --- | --- | --- | --- | --- | --- |
| CCC1=C(C[C@H]2NCCc3cc(OC)c(OC)cc32)C[C@H]2c3cc(OC)c(OC)cc3CCN2C1 [(−)-R,S-dehydroemetine, (S)-2-((R)-6,7-dimethoxy-1,2,3,4-tetrahydro-isoquinolin-1-ylmethyl)-3-ethyl-9,10-dimethoxy-1,6,7,11b-tetrahydro-4H-pyrido[2,1-a]isoquinoline * dihydrobromide] | 32.98% | 26.76% | 71 ± 6.1 nM | 0.177 µM | 0.168 µM |
| CCC1=C(C[C@@H]2NCCc3cc(OC)c(OC)cc32)C[C@H]2c3cc(OC)c(OC)cc3CCN2C1 [(−)-S,S-dehydroisoemetine, (S)-2-((S)-6,7-dimethoxy-1,2,3,4-tetrahydro-isoquinolin-1-ylmethyl)-3-ethyl-9,10-dimethoxy-1,6,7,11b-tetrahydro-4H-pyrido[2,1-a]isoquinoline * dihydrobromide] | – | – | 2070 ± 260 nM | – | – |
